Assay results taken from patent US20260274895A1, “DE NOVO DESIGNED MEMBRANE-TRAVERSING AND ORALLY BIOAVAILABLE MACROCYCLES” (UNIVERSITY OF WASHINGTON, priority 2022, published 2026).
Where a SMILES comes first, the peptide text is derived from it. [ ]: non-standard residue; d: D form. NMeF = CN[C@@H](Cc1ccccc1)C(=O)O; dNMeF = CN[C@H](Cc1ccccc1)C(=O)O; NMeL = CN[C@@H](CC(C)C)C(=O)O; dNMeL = CN[C@H](CC(C)C)C(=O)O; NMeV = CN[C@H](C(=O)O)C(C)C; NMeA = CN[C@@H](C)C(=O)O; dNMeA = CN[C@H](C)C(=O)O; Sar = CNCC(=O)O

settings: PAMPA

Row | Structure (SMILES) | PAMPA_Papp_Avg (apparent permeability) [nm/s]
1 | CC(C)C[C@@H]1C(=O)N[C@@H](C)C(=O)N[C@H](CC(C)C)C(=O)N(C)[C@@H](C)C(=O)N2CCC[C@@H]2C(=O)N2CCC[C@@H]2C(=O)N2CCC[C@@H]2C(=O)N2CCC[C@H]2C(=O)N[C@H](C(C)C)C(=O)N(C)[C@@H](CC(C)C)C(=O)N1C [Design D10.28, l*ApppPv*L*lA] (cyclo([dV][NMeL][dNMeL]A[dL][NMeA][dP][dP][dP]P)) | 1.84
2 | CC(C)C[C@@H]1C(=O)N(C)[C@H](C)C(=O)N(C)[C@@H](C(C)C)C(=O)N2CCC[C@@H]2C(=O)N[C@H](C)C(=O)N[C@@H](Cc2ccccc2)C(=O)N2CCC[C@@H]2C(=O)N2CCC[C@H]2C(=O)N[C@H](C(C)C)C(=O)N[C@@H](C(C)C)C(=O)N1C [Design D10.29, FpPvV*l*a*Vpa] (cyclo([dV]V[dNMeL][dNMeA][NMeV][dP][dA]F[dP]P)) | 4.41
3 | CC[C@@H](C)[C@H]1NC(=O)[C@H](Cc2ccccc2)NC(=O)[C@@H](CC(C)C)N(C)C(=O)[C@@H]2CCCN2C(=O)[C@@H](C(C)C)NC(=O)[C@@H](C)N(C)C(=O)[C@H]2CCCN2C(=O)[C@@H](CC(C)C)NC(=O)[C@H](CC(C)C)NC(=O)[C@@H]2CCCN2C1=O [Design D10.30, P*lFiPLlp*av] (cyclo(F[dI]PL[dL][dP][dNMeA][dV]P[dNMeL])) | 47.8
4 | CC[C@H](C)[C@@H]1NC(=O)[C@@H](CC(C)C)NC(=O)[C@@H](C)N(C)C(=O)[C@H](Cc2ccccc2)NC(=O)[C@@H](CC(C)C)NC(=O)[C@@H](C)N(C)C(=O)[C@@H]2CCCN2C(=O)[C@H](C(C)C)NC(=O)[C@H]2CCCN2C(=O)[C@@H]2CCCN2C1=O [Design D10.31, F*alIPpVP*al] (cyclo(F[dNMeA][dL]IP[dP]VP[dNMeA][dL])) | 19
5 | CC[C@@H](C)[C@H]1NC(=O)[C@@H](Cc2ccccc2)NC(=O)[C@@H](CC(C)C)NC(=O)[C@@H]2CCCN2C(=O)[C@H]2CCCN2C(=O)[C@H](CC(C)C)NC(=O)[C@H](CC(C)C)NC(=O)[C@@H](CC(C)C)N(C)C(=O)[C@H](C)N(C)C(=O)[C@H]2CCCN2C1=O [Design D10.34, fip*A*lLLpPl] (cyclo([dL][dF][dI][dP][NMeA][dNMeL]LL[dP]P)) | 45.1
6 | CC(C)C[C@@H]1NC(=O)[C@H](C(C)C)NC(=O)[C@@H](CC(C)C)N(C)C(=O)[C@H](C)NC(=O)[C@@H](CC(C)C)N(C)C(=O)[C@@H]2CCCN2C(=O)[C@H]2CCCN2C(=O)[C@H](C)N(C)C(=O)[C@H]2CCCN2C(=O)[C@@H](CC(C)C)NC1=O [Design D10.35, Llp*ApP*LA*lV] (cyclo([dNMeL]A[dNMeL]VL[dL][dP][NMeA][dP]P)) | 2.79
7 | CC[C@@H](C)[C@H]1NC(=O)[C@@H](Cc2ccccc2)NC(=O)[C@H](CC(C)C)NC(=O)[C@@H](C)N(C)C(=O)[C@@H](CC(C)C)NC(=O)[C@H](CC(C)C)NC(=O)[C@H]2CCCN2C(=O)[C@@H]2CCCN2C(=O)[C@@H](C)NC(=O)[C@H]2CCCN2C1=O [Design D10.37, l*aLfipaPpL] (cyclo(L[dF][dI][dP][dA]P[dP]L[dL][dNMeA])) | 6.54
8 | CC[C@@H](C)[C@H]1NC(=O)[C@H]2CCCN2C(=O)[C@@H]2CCCN2C(=O)[C@@H](CC(C)C)NC(=O)[C@H](C)NC(=O)[C@@H](CC(C)C)N(C)C(=O)[C@@H](C)N(C)C(=O)[C@@H]2CCCN2C(=O)[C@@H]([C@H](C)CC)NC(=O)[C@@H](CC(C)C)N(C)C1=O [Design D10.39, P*a*lAlPpi*li] (cyclo(A[dL]P[dP][dI][dNMeL][dI]P[dNMeA][dNMeL])) | 14.8
9 | CC[C@H](C)[C@@H]1NC(=O)[C@@H](C(C)C)NC(=O)[C@@H](CC(C)C)N(C)C(=O)[C@H]2CCCN2C(=O)[C@@H](CC(C)C)NC(=O)[C@@H](CC(C)C)N(C)C(=O)[C@H](CC(C)C)NC(=O)[C@H]2CCCN2C(=O)[C@H](C)N(C)C(=O)[C@H]2CCCN2C1=O [Design D10.41, p*lvIp*ApL*ll] (cyclo(I[dP][NMeA][dP]L[dNMeL][dL][dP][dNMeL][dV])) | 56.9
10 | CC(C)C[C@H]1NC(=O)[C@@H](C(C)C)NC(=O)[C@H](CC(C)C)N(C)C(=O)[C@@H](Cc2ccccc2)NC(=O)[C@H](CC(C)C)N(C)C(=O)[C@H]2CCCN2C(=O)[C@@H]2CCCN2C(=O)[C@H]2CCCN2C(=O)[C@@H](C(C)C)NC(=O)[C@H]2CCCN2C1=O [Design D10.42, vlpvpPp*Lf*L] (cyclo([dP][NMeL][dF][NMeL][dV][dL][dP][dV][dP]P)) | 7.1
11 | CC(C)C[C@@H]1C(=O)N[C@@H](C)C(=O)N[C@H](CC(C)C)C(=O)N2CCC[C@H]2C(=O)N[C@H](C)C(=O)N2CCC[C@@H]2C(=O)N2CCC[C@H]2C(=O)N[C@H](C(C)C)C(=O)N[C@H](CC(C)C)C(=O)N(C)[C@H](CC(C)C)C(=O)N1C [Design D10.43, apPvl*l*LAlP] (cyclo([dV][dL][dNMeL][dNMeL]A[dL]P[dA][dP]P)) | 1.61
12 | CC[C@H](C)[C@@H]1NC(=O)[C@@H](Cc2ccccc2)NC(=O)[C@@H](C)NC(=O)[C@@H](C(C)C)NC(=O)[C@H](CCSC)NC(=O)[C@@H]2CCCN2C(=O)[C@H]2CCCN2C(=O)[C@@H]2CCCN2C(=O)[C@@H](C)N(C)C(=O)[C@@H](CC(C)C)N(C)C1=O [Design D10.45, vafI*l*aPpPM] (cyclo(M[dV][dA][dF]I[dNMeL][dNMeA]P[dP]P)) | 4.87
13 | CC(C)C[C@@H]1NC(=O)[C@H](C)NC(=O)[C@@H]2CCCN2C(=O)[C@H]2CCCN2C(=O)[C@H](Cc2ccccc2)NC(=O)[C@H]2CCCN2C(=O)[C@@H](Cc2ccccc2)N(C)C(=O)[C@@H]2CCCN2C(=O)[C@@H](C)NC(=O)[C@H](CC(C)C)NC1=O [Design D10.49, aP*fpFpPALL] (cyclo(ALL[dA]P[dNMeF][dP]F[dP]P)) | 1.7
14 | CC[C@@H](C)[C@H]1NC(=O)[C@H](Cc2ccccc2)N(C)C(=O)[C@@H](CC(C)C)N(C)C(=O)[C@H](C(C)C)NC(=O)[C@H](C)NC(=O)[C@@H]2CCCN2C(=O)[C@H](CC(C)C)N(C)C(=O)[C@@H](Cc2ccccc2)N(C)C(=O)[C@H](C)N(C)C(=O)[C@H](C)N(C)C1=O [Design D10.56, *f*LPAV*l*Fi*A*A] (cyclo(AV[dNMeL][NMeF][dI][NMeA][NMeA][dNMeF][NMeL]P)) | 90.2
15 | CC(C)C[C@@H]1NC(=O)[C@@H](CC(C)C)N(C)C(=O)[C@@H]2CCCN2C(=O)[C@H](CC(C)C)N(C)C(=O)[C@@H](C)NC(=O)[C@@H](CC(C)C)N(C)C(=O)[C@@H]2CCCN2C(=O)CN(C)C(=O)[C@H](CC(C)C)N(C)C(=O)[C@H](Cc2ccccc2)NC1=O [Design D10.57, *L*GP*la*LP*lLF] (cyclo(F[NMeL][Sar]P[dNMeL][dA][NMeL]P[dNMeL]L)) | 30.5
16 | C[C@H]1NC(=O)[C@@H](Cc2ccccc2)NC(=O)[C@H](Cc2ccccc2)N(C)C(=O)[C@H](Cc2ccccc2)N(C)C(=O)[C@@H](Cc2ccccc2)NC(=O)[C@H]2CCCN2C(=O)CNC(=O)[C@@H](C)NC(=O)[C@@H]2CCCN2C(=O)[C@@H](Cc2ccccc2)NC1=O [Design D10.62, aGpf*F*FfafP] (cyclo(G[dP][dF][NMeF][NMeF][dF][dA][dF]P[dA])) | 42.3
17 | CC[C@@H](C)[C@H]1NC(=O)[C@@H]2CCCN2C(=O)[C@@H]([C@H](C)CC)NC(=O)[C@@H](C)N(C)C(=O)[C@H](CC(C)C)NC(=O)[C@@H](Cc2ccccc2)NC(=O)[C@H](CC(C)C)N(C)C(=O)[C@H]2CCCN2C(=O)[C@@H](CC(C)C)NC(=O)[C@H](CC(C)C)NC(=O)[C@H]2CCCN2C1=O [Design D11.1, ipLlp*LfL*aiP] (cyclo(L[dL][dP][NMeL][dF]L[dNMeA][dI]P[dI][dP])) | 34.8
18 | CC[C@@H](C)[C@H]1NC(=O)[C@@H](CC(C)C)NC(=O)[C@H](C(C)C)NC(=O)[C@@H](CC(C)C)N(C)C(=O)[C@@H]2CCCN2C(=O)[C@H](C)NC(=O)[C@H](CC(C)C)N(C)C(=O)[C@H]2CCCN2C(=O)[C@H](C)N(C)C(=O)[C@@H](CC(C)C)N(C)C(=O)[C@@H]2CCCN2C1=O [Design D11.5, AP*lVliP*l*Ap*L] (cyclo(AP[dNMeL]V[dL][dI]P[dNMeL][NMeA][dP][NMeL])) | 28.1
19 | CC[C@H](C)[C@@H]1NC(=O)[C@H](C(C)C)N(C)C(=O)[C@H]2CCCN2C(=O)[C@H]([C@@H](C)CC)NC(=O)[C@@H](CC(C)C)N(C)C(=O)[C@@H](C)NC(=O)[C@@H]2CCCN2C(=O)[C@H]2CCCN2C(=O)[C@H](CC(C)C)NC(=O)[C@@H](Cc2ccccc2)NC(=O)[C@H](CC(C)C)NC(=O)[C@H]2CCCN2C1=O [Design D12.3, p*VIpLfLpPa*lI] (cyclo([dA][dNMeL]I[dP][NMeV]I[dP]L[dF]L[dP]P)) | 7.89
20 | CC(C)C[C@@H]1NC(=O)[C@@H](CC(C)C)N(C)C(=O)[C@@H](CC(C)C)N(C)C(=O)[C@@H](CC(C)C)N(C)C(=O)[C@H](CC(C)C)NC(=O)[C@@H]2CCCN2C(=O)[C@H]2CCCN2C(=O)[C@H](Cc2ccccc2)NC1=O [SEQ ID NO 47, FpPL*l*l*lL] (cyclo(L[dNMeL][dNMeL][dNMeL]LF[dP]P)) | 12.7
